Results as given in ChEMBL document CHEMBL4002623, “Synthesis and in vitro activity of dicationic indolyl diphenyl ethers as novel potent antibiotic agents against drug-resistant bacteria” (Bioorg Med Chem Lett, 2017).
≈ marks a conversion by molar mass, not a printed value.

Columns and labels:
Klebsiella pneumoniae [1] = assay: Antibacterial activity against extended-spectrum beta-lactamase-negative Klebsiella pneumoniae 7 by agar dilution method; format: functional
Salmonella typhi = assay: Antibacterial activity against Salmonella typhi H901 by agar dilution method; format: functional, Salmonella enterica subsp. enterica serovar Typhi; settings: Salmonella enterica
Enterococcus faecium [2] = assay: Antibacterial activity against vancomycin-resistant Enterococcus faecium 05-8 by agar dilution method; format: functional
[3] = system: Staphylococcus epidermidis; assay: Antibacterial activity against methicillin-sensitive Staphylococcus epidermidis 09-9 by agar dilution method; format: functional
Citrobacter freundii = assay: Antibacterial activity against Citrobacter freundii ATCC 43864 by agar dilution method; format: functional
Providencia rettgeri = assay: Antibacterial activity against Providencia rettgeri ATCC 31052 by agar dilution method; format: functional
Escherichia coli [4] = assay: Antibacterial activity against extended-spectrum beta-lactamase-positive Escherichia coli 09-1 by agar dilution method; format: functional
Enterococcus faecalis [5] = assay: Antibacterial activity against vancomycin-resistant Enterococcus faecalis 09-9 by agar dilution method; format: functional
Pseudomonas aeruginosa [6] = assay: Antibacterial activity against Pseudomonas aeruginosa ATCC 27853 by agar dilution method; format: functional
Enterococcus faecium [7] = assay: Antibacterial activity against vancomycin-sensitive Enterococcus faecium 09-10 by agar dilution method; format: functional
Enterococcus faecium [8] = assay: Antibacterial activity against vancomycin-resistant Enterococcus faecium ATCC 700221 by agar dilution method; format: functional
Staphylococcus aureus [9] = assay: Antibacterial activity against methicillin-sensitive Staphylococcus aureus 09-6 by agar dilution method; format: functional
Pseudomonas aeruginosa [10] = assay: Antibacterial activity against Pseudomonas aeruginosa 09-14 by agar dilution method; format: functional
[11] = Cytotoxicity against HEK293T cells after 48 hrs by MTS assay; format: cell-based, HEK-293T; settings: human
Proteus vulgaris = assay: Antibacterial activity against Proteus vulgaris ATCC 29905 by agar dilution method; format: functional
Escherichia coli [12] = assay: Antibacterial activity against extended-spectrum beta-lactamase-negative Escherichia coli ATCC 25922 by agar dilution method; format: functional
Enterococcus faecalis [13] = assay: Antibacterial activity against vancomycin-sensitive Enterococcus faecalis ATCC 29212 by agar dilution method; format: functional
Klebsiella pneumoniae [14] = assay: Antibacterial activity against Klebsiella pneumoniae ATCC BAA-2146 expressing NDM-1 by agar dilution method; format: functional
[15] = system: Acinetobacter calcoaceticus; assay: Antibacterial activity against Acinetobacter calcoaceticus ATCC 19606 by agar dilution method; format: functional
Enterococcus faecalis [16] = assay: Antibacterial activity against vancomycin-resistant Enterococcus faecalis ATCC 51299 by agar dilution method; format: functional
Proteus mirabilis = assay: Antibacterial activity against Proteus mirabilis 09-1 by agar dilution method; format: functional
Morganella morganii = assay: Antibacterial activity against Morganella morganii ATCC 25830 by agar dilution method; format: functional
[17] = system: Staphylococcus epidermidis; assay: Antibacterial activity against methicillin-resistant Staphylococcus epidermidis 09-3 by agar dilution method; format: functional
Enterobacter cloacae = assay: Antibacterial activity against Enterobacter cloacae 45301 by agar dilution method; format: functional
Klebsiella aerogenes = assay: Antibacterial activity against Enterobacter aerogenes 45102 by agar dilution method; format: functional
Staphylococcus aureus [18] = assay: Antibacterial activity against methicillin-sensitive Staphylococcus aureus 15 by agar dilution method; format: functional
Staphylococcus aureus [19] = assay: Antibacterial activity against methicillin-sensitive Staphylococcus aureus ATCC 29213 by agar dilution method; format: functional
Pseudomonas aeruginosa [20] = assay: Antibacterial activity against Pseudomonas aeruginosa PAO1 by agar dilution method; format: functional
Klebsiella pneumoniae [21] = assay: Antibacterial activity against extended-spectrum beta-lactamase-negative Klebsiella pneumoniae 09-8 by agar dilution method; format: functional
Escherichia coli [22] = assay: Antibacterial activity against extended-spectrum beta-lactamase-negative Escherichia coli 1515 by agar dilution method; format: functional
Staphylococcus aureus [23] = assay: Antibacterial activity against methicillin-resistant Staphylococcus aureus 09-13 by agar dilution method; format: functional
Staphylococcus aureus [24] = assay: Antibacterial activity against methicillin-resistant Staphylococcus aureus ATCC 33591 by agar dilution method; format: functional
[25] = system: Staphylococcus epidermidis; assay: Antibacterial activity against methicillin-sensitive Staphylococcus epidermidis ATCC 12228 by agar dilution method; format: functional
Klebsiella pneumoniae [26] = assay: Antibacterial activity against extended-spectrum beta-lactamase-positive Klebsiella pneumoniae 09-25 by agar dilution method; format: functional
Enterococcus faecalis [27] = assay: Antibacterial activity against vancomycin-sensitive Enterococcus faecalis 09-8 by agar dilution method; format: functional
Serratia marcescens = assay: Antibacterial activity against Serratia marcescens 41002 by agar dilution method; format: functional
Escherichia coli [28] = assay: Antibacterial activity against extended-spectrum beta-lactamase-negative Escherichia coli 09-20 by agar dilution method; format: functional
Klebsiella pneumoniae [29] = assay: Antibacterial activity against extended-spectrum beta-lactamase-positive Klebsiella pneumoniae ATCC 700603 by agar dilution method; format: functional

| SMILES | MIC (Klebsiella pneumoniae [1]) [mg/L] | MIC [3] [mg/L] | MIC (Citrobacter freundii) [mg/L] | MIC (Providencia rettgeri) [mg/L] | MIC (Escherichia coli [4]) [mg/L] | MIC (Enterococcus faecium [7]) [mg/L] | MIC (Proteus vulgaris) [mg/L] | MIC (Escherichia coli [12]) [mg/L] | MIC (Enterococcus faecalis [13]) [mg/L] | MIC (Klebsiella pneumoniae [14]) [mg/L] | MIC [15] [mg/L] | MIC (Proteus mirabilis) [mg/L] | MIC (Morganella morganii) [mg/L] | MIC (Enterobacter cloacae) [mg/L] | MIC (Klebsiella aerogenes) [mg/L] | MIC (Klebsiella pneumoniae [21]) [mg/L] | MIC [25] [mg/L] | MIC (Klebsiella pneumoniae [26]) [mg/L] | MIC (Enterococcus faecalis [27]) [mg/L] | MIC (Serratia marcescens) [mg/L] | other results |
| --- | --- | --- | --- | --- | --- | --- | --- | --- | --- | --- | --- | --- | --- | --- | --- | --- | --- | --- | --- | --- | --- |
| N=C(NC1CCC1)c1ccc2cc(-c3ccc(Oc4ccc(-c5cc6ccc(C(=N)NC7CCC7)cc6[nH]5)cc4)cc3)[nH]c2c1 | > 128 | 8 (≈ 13.5 µM) | > 128 | > 128 | > 128 | 64 (≈ 108 µM) | > 128 | > 128 | 64 (≈ 108 µM) | > 128 | > 128 | > 128 | > 128 | > 128 | > 128 | > 128 | 8 (≈ 13.5 µM) | > 128 | 64 (≈ 108 µM) | > 128 | MIC (Salmonella typhi): > 128 mg/L; MIC (Enterococcus faecium [2]): > 128 mg/L; MIC (Enterococcus faecalis [5]): 64 mg/L (≈ 108 µM); MIC (Pseudomonas aeruginosa [6]): > 128 mg/L; MIC (Enterococcus faecium [8]): 32 mg/L (≈ 54 µM); MIC (Staphylococcus aureus [9]): 64 mg/L (≈ 108 µM); MIC (Pseudomonas aeruginosa [10]): > 128 mg/L; CC50 at 48 h [11]: 32.6 mg/L (≈ 55 µM); MIC (Enterococcus faecalis [16]): 64 mg/L (≈ 108 µM); MIC [17]: 16 mg/L (≈ 27 µM); MIC (Staphylococcus aureus [18]): 64 mg/L (≈ 108 µM); MIC (Staphylococcus aureus [19]): 64 mg/L (≈ 108 µM); MIC (Pseudomonas aeruginosa [20]): > 128 mg/L; MIC (Escherichia coli [22]): > 128 mg/L; MIC (Staphylococcus aureus [23]): 64 mg/L (≈ 108 µM); MIC (Staphylococcus aureus [24]): 64 mg/L (≈ 108 µM); MIC (Escherichia coli [28]): > 128 mg/L; MIC (Klebsiella pneumoniae [29]): > 128 mg/L |
| N=C(c1ccc2cc(-c3ccc(Oc4ccc(-c5cc6ccc(C(=N)N7CCCCC7)cc6[nH]5)cc4)cc3)[nH]c2c1)N1CCCCC1 | > 128 | 8 (≈ 12.9 µM) | > 128 | > 128 | > 128 | 16 to 32 (≈ 25.8 to 51.5 µM) | > 128 | > 128 | 32 (≈ 51.5 µM) | > 128 | > 128 | > 128 | > 128 | > 128 | > 128 | > 128 | 8 (≈ 12.9 µM) | > 128 | 32 (≈ 51.5 µM) | > 128 | MIC (Salmonella typhi): > 128 mg/L; MIC (Enterococcus faecium [2]): 32 mg/L (≈ 51.5 µM); MIC (Enterococcus faecalis [5]): 32 mg/L (≈ 51.5 µM); MIC (Pseudomonas aeruginosa [6]): > 128 mg/L; MIC (Enterococcus faecium [8]): 16 to 32 mg/L (≈ 25.8 to 51.5 µM); MIC (Staphylococcus aureus [9]): 16 mg/L (≈ 25.8 µM); MIC (Pseudomonas aeruginosa [10]): > 128 mg/L; CC50 at 48 h [11]: 2.5 mg/L (≈ 4.03 µM); MIC (Enterococcus faecalis [16]): 64 mg/L (≈ 103 µM); MIC [17]: 8 mg/L (≈ 12.9 µM); MIC (Staphylococcus aureus [18]): 16 mg/L (≈ 25.8 µM); MIC (Staphylococcus aureus [19]): 16 mg/L (≈ 25.8 µM); MIC (Pseudomonas aeruginosa [20]): > 128 mg/L; MIC (Escherichia coli [22]): > 128 mg/L; MIC (Staphylococcus aureus [23]): 16 mg/L (≈ 25.8 µM); MIC (Staphylococcus aureus [24]): 16 mg/L (≈ 25.8 µM); MIC (Escherichia coli [28]): > 128 mg/L; MIC (Klebsiella pneumoniae [29]): > 128 mg/L |
| C[C@H]1COc2c(N3CCN(C)CC3)c(F)cc3c(=O)c(C(=O)O)cn1c23.C[C@H]1COc2c(N3CCN(C)CC3)c(F)cc3c(=O)c(C(=O)O)cn1c23.O [LEVOFLOXACIN] |  | 8 | ≤ 0.03 | ≤ 0.03 | 16 | 64 | ≤ 0.03 | 0.03 to 0.06 | 0.5 | > 128 | 0.25 | 2 | ≤ 0.03 | 0.06 | 0.06 | ≤ 0.03 | 0.25 | 4 | 1 | 0.25 | MIC (Salmonella typhi): ≤ 0.03 mg/L; MIC (Enterococcus faecium [2]): 64 mg/L; MIC (Enterococcus faecalis [5]): 128 mg/L; MIC (Enterococcus faecium [8]): 64 mg/L; MIC (Staphylococcus aureus [9]): 0.25 mg/L; MIC (Enterococcus faecalis [16]): 0.5 mg/L; MIC [17]: 8 mg/L; MIC (Staphylococcus aureus [18]): 0.125 mg/L; MIC (Staphylococcus aureus [19]): 0.125 mg/L; MIC (Staphylococcus aureus [23]): 32 mg/L; MIC (Staphylococcus aureus [24]): 0.125 mg/L |
| CN[C@H](CC(C)C)C(=O)N[C@H]1C(=O)N[C@@H](CC(N)=O)C(=O)N[C@H]2C(=O)N[C@H]3C(=O)N[C@H](C(=O)N[C@H](C(=O)O)c4cc(O)cc(O)c4-c4cc3ccc4O)[C@H](O)c3ccc(c(Cl)c3)Oc3cc2cc(c3O[C@@H]2O[C@H](CO)[C@@H](O)[C@H](O)[C@H]2O[C@H]2C[C@](C)(N)[C@H](O)[C@H](C)O2)Oc2ccc(cc2Cl)[C@H]1O [VANCOMYCIN] |  | 0.5 (≈ 0.345 µM) |  |  |  |  |  |  | 1 (≈ 0.69 µM) |  |  |  |  |  |  |  | 0.5 (≈ 0.345 µM) |  | 1 (≈ 0.69 µM) |  |  |
| c1cc(-c2cc3ccc(C4=NCCN4)cc3[nH]2)ccc1Oc1ccc(-c2cc3ccc(C4=NCCN4)cc3[nH]2)cc1 | > 128 | 2 (≈ 3.73 µM) | > 128 | > 128 | > 128 | 8 (≈ 14.9 µM) | > 128 | > 128 |  | > 128 | > 128 | > 128 | > 128 | > 128 | > 128 | > 128 |  | > 128 |  | > 128 | MIC (Pseudomonas aeruginosa [6]): > 128 mg/L; MIC (Staphylococcus aureus [9]): 16 mg/L (≈ 29.8 µM); MIC (Pseudomonas aeruginosa [10]): > 128 mg/L; CC50 at 48 h [11]: 1.7 mg/L (≈ 3.17 µM); MIC (Staphylococcus aureus [18]): 8 mg/L (≈ 14.9 µM); MIC (Staphylococcus aureus [19]): 16 mg/L (≈ 29.8 µM); MIC (Pseudomonas aeruginosa [20]): > 128 mg/L; MIC (Escherichia coli [22]): > 128 mg/L; MIC (Escherichia coli [28]): > 128 mg/L; MIC (Klebsiella pneumoniae [29]): > 128 mg/L |
| c1cc(-c2cc3ccc(C4=NCCCN4)cc3[nH]2)ccc1Oc1ccc(-c2cc3ccc(C4=NCCCN4)cc3[nH]2)cc1 | ≥ 128 | 1 (≈ 1.77 µM) | 128 (≈ 227 µM) | 128 (≈ 227 µM) | 64 (≈ 113 µM) | 16 (≈ 28.3 µM) | 128 (≈ 227 µM) | 64 (≈ 113 µM) | 4 (≈ 7.08 µM) | 128 (≈ 227 µM) | > 128 | > 128 | 32 (≈ 56.7 µM) | 64 (≈ 113 µM) | 128 (≈ 227 µM) | 128 (≈ 227 µM) | 0.25 (≈ 0.443 µM) | ≥ 128 | 2 (≈ 3.54 µM) | 128 (≈ 227 µM) | MIC (Pseudomonas aeruginosa [6]): > 128 mg/L; MIC (Pseudomonas aeruginosa [10]): > 128 mg/L; CC50 at 48 h [11]: 43.1 mg/L (≈ 76.3 µM); MIC (Pseudomonas aeruginosa [20]): > 128 mg/L; MIC (Escherichia coli [22]): 64 mg/L (≈ 113 µM); MIC (Escherichia coli [28]): 128 mg/L (≈ 227 µM); MIC (Klebsiella pneumoniae [29]): > 128 mg/L |
